3 compounds from patent publication US12660819B2, “Herbicidal derivatives” (SYNGENTA CROP PROTECTION AG, priority 2020, dated 2026) can be followed below.

Holding throughout (format): in vivo
For assay [1], the system named is Zea mays (ZEAMX). Put plainly: Pre-emergence Test (glasshouse, percentage damage to the plant). The settings on record: 1000 g/ha unless otherwise stated, five-point scale.
Assay [2] has as its system Ipomoea hederacea (IPOHE). The description is as above. The settings on record: 1000 g/ha unless otherwise stated, five-point scale.
Assay [3] deals with Abutilon theophrasti (ABUTH). Put plainly: Post-emergence Test (glasshouse, percentage damage to the plant). The settings on record: post-emergence spray, 1000 g/ha unless otherwise stated, evaluated after 13 days. The method in brief: (§1)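 After sowing in standard soil, pots were kept at 24/16 °C (day/night), 14 h light and 65% humidity. They were sprayed at 1000 g/ha unless otherwise stated, watered twice daily, and assessed for percentage damage at 13 days on a 1–5 scale.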

The test system of assay [4] is Ipomoea hederacea (IPOHE). Described as above. The settings on record: post-emergence spray, 1000 g/ha unless otherwise stated, evaluated after 13 days. The method in brief:
(§2)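 Percentage damage to the plant, assessed 13 days after application and scored 1–5 in 20% bands. Pots sown in standard soil received compound at 1000 g/ha unless otherwise stated, sprayed under 24/16 °C, 14 h light, 65% humidity.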

In assay [5] the test system is Echinochloa crus-galli (ECHCG). The assay is described as above. The settings on record: post-emergence spray, 1000 g/ha unless otherwise stated, evaluated after 13 days. The method in brief:
as §1

For assay [6], the system named is Setaria faberi (SETFA). The description is as above. The settings on record: post-emergence spray, 1000 g/ha unless otherwise stated, evaluated after 13 days. The method in brief:
as §2

The test system of assay [7] is Amaranthus retoflexus (AMARE). The description is as above. The settings on record: post-emergence spray, 1000 g/ha unless otherwise stated, evaluated after 13 days. The method in brief:
as §1

Assay [8] deals with Zea mays (ZEAMX). Described as above. The settings on record: post-emergence spray, 1000 g/ha unless otherwise stated, evaluated after 13 days. The method in brief:
as §2

The subject of assay [9] is Echinochloa crus-galli (ECHCG). Put plainly: Pre-emergence Test (glasshouse, percentage damage to the plant). The settings on record: 1000 g/ha unless otherwise stated, five-point scale.
Assay [10] deals with Setaria faberi (SETFA). The description is as above. The settings on record: 1000 g/ha unless otherwise stated, five-point scale.
Assay [11] has as its system Amaranthus retoflexus (AMARE). The description is as above. The settings on record: 1000 g/ha unless otherwise stated, five-point scale.
Assay [12] deals with Abutilon theophrasti (ABUTH). Described as above. The settings on record: 1000 g/ha unless otherwise stated, five-point scale.

`CCn1c(C)c(-c2cc(C)cc(C(F)(F)F)c2)c(=O)c(C(=O)O)c1-c1ccc(Cl)c(Cl)c1` [Compound 67, 2-(3,4-dichlorophenyl)-1-ethyl-6-methyl-5-[3-methyl-5-(trifluoromethyl)phenyl]-4-oxo-pyridine-3-carboxylic acid]: the “percentage damage to the plant, ZEAMX” value in the assay with Zea mays (ZEAMX) [1] is listed as 1 (1=0-20%). The “percentage damage to the plant, IPOHE” value in assay [2] is listed as 1 (1=0-20%). Further, in [3], the “Post-emergence Test ABUTH, percentage damage to the plant (five-point scale)” value is reported as 2 (2=21-40%). In addition, in assay [4], the “Post-emergence Test IPOHE, percentage damage to the plant (five-point scale)” value is on record as 1 (1=0-20%). Moreover, the “Post-emergence Test ECHCG, percentage damage to the plant (five-point scale)” value in assay [5] is recorded as 1 (1=0-20%). For the same compound, the “Post-emergence Test SETFA, percentage damage to the plant (five-point scale)” value in the assay on Setaria faberi (SETFA) [6] was 1 (1=0-20%). For the same compound, the “Post-emergence Test AMARE, percentage damage to the plant (five-point scale)” value in [7] is listed as 1 (1=0-20%). Besides, in the assay on Zea mays (ZEAMX) [8], the “Post-emergence Test ZEAMX, percentage damage to the plant (five-point scale)” value is listed as 1 (1=0-20%). In addition, the “percentage damage to the plant, ECHCG” value in assay [9] was 1 (1=0-20%). For the same compound, the “percentage damage to the plant, SETFA” value with Setaria faberi (SETFA) [10] is 1 (1=0-20%). Further, the “percentage damage to the plant, AMARE” value in [11] is 1 (1=0-20%). For the same compound, the “percentage damage to the plant, ABUTH” value in [12] is recorded as 1 (1=0-20%).
For the compound `CCn1c(C)c(C2=CCCC2)c(=O)c(C(=O)O)c1-c1ccc(Cl)c(Cl)c1` [Compound 68, 5-(cyclopenten-1-yl)-2-(3,4-dichlorophenyl)-1-ethyl-6-methyl-4-oxo-pyridine-3-carboxylic acid], in the assay with Zea mays (ZEAMX) [1], the “percentage damage to the plant, ZEAMX” value is on record as 1 (1=0-20%). In addition, in assay [2], the “percentage damage to the plant, IPOHE” value is recorded as 2 (2=21-40%). For the same compound, the “Post-emergence Test ABUTH, percentage damage to the plant (five-point scale)” value in [3] was 3 (3=41-60%). The “Post-emergence Test IPOHE, percentage damage to the plant (five-point scale)” value in assay [4] is reported as 3 (3=41-60%). Also, the “Post-emergence Test ECHCG, percentage damage to the plant (five-point scale)” value in assay [5] is 2 (2=21-40%). The “Post-emergence Test SETFA, percentage damage to the plant (five-point scale)” value with Setaria faberi (SETFA) [6] was 3 (3=41-60%). Besides, in [7], the “Post-emergence Test AMARE, percentage damage to the plant (five-point scale)” value is 1 (1=0-20%). Also, the “Post-emergence Test ZEAMX, percentage damage to the plant (five-point scale)” value in the assay on Zea mays (ZEAMX) [8] was 1 (1=0-20%). The “percentage damage to the plant, ECHCG” value in assay [9] is 1 (1=0-20%). Moreover, in the assay with Setaria faberi (SETFA) [10], the “percentage damage to the plant, SETFA” value is 5 (5=81-100%). The “percentage damage to the plant, AMARE” value in assay [11] is listed as 1 (1=0-20%). In addition, the “percentage damage to the plant, ABUTH” value in [12] was 1 (1=0-20%).
As for `CCn1c(C)c(-c2cc(Cl)nc(OC(C)C)c2)c(=O)c(C(=O)O)c1-c1ccc(Cl)c(Cl)c1` [Compound 69, 5-(2-chloro-6-isopropoxy-4-pyridyl)-2-(3,4-dichlorophenyl)-1-ethyl-6-methyl-4-oxo-pyridine-3-carboxylic acid], the “percentage damage to the plant, ZEAMX” value in the assay with Zea mays (ZEAMX) [1] was 2 (2=21-40%). In addition, in assay [2], the “percentage damage to the plant, IPOHE” value is reported as 4 (4=61-80%). In addition, in [3], the “Post-emergence Test ABUTH, percentage damage to the plant (five-point scale)” value is on record as 2 (2=21-40%). Moreover, the “Post-emergence Test IPOHE, percentage damage to the plant (five-point scale)” value in [4] is 3 (3=41-60%). In assay [5], the “Post-emergence Test ECHCG, percentage damage to the plant (five-point scale)” value is on record as 1 (1=0-20%). Moreover, the “Post-emergence Test SETFA, percentage damage to the plant (five-point scale)” value in the assay with Setaria faberi (SETFA) [6] is recorded as 3 (3=41-60%). The “Post-emergence Test AMARE, percentage damage to the plant (five-point scale)” value in [7] is 2 (2=21-40%). For the same compound, in the assay with Zea mays (ZEAMX) [8], the “Post-emergence Test ZEAMX, percentage damage to the plant (five-point scale)” value is given as 1 (1=0-20%). Besides, in assay [9], the “percentage damage to the plant, ECHCG” value is 1 (1=0-20%). Moreover, in the assay with Setaria faberi (SETFA) [10], the “percentage damage to the plant, SETFA” value is 4 (4=61-80%). The “percentage damage to the plant, AMARE” value in [11] was 1 (1=0-20%). The “percentage damage to the plant, ABUTH” value in assay [12] is recorded as 2 (2=21-40%).
